Laboratory results reported in ChEMBL document CHEMBL1201862, “PubChem BioAssay data set” (2004).
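Growth conditions: 96-well plates. Treatment: test compound, 48 hours, 5 concentrations. Analysis: linear interpolation between bracketing concentrations; unreached endpoints set to highest concentration. GI50 = concentration required for 50% inhibition of growth.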 Active and inactive are the calls of the source. Cut-off read from the data, not from the text of the source: active = GI50 up to about 1.1 µM and inactive = higher.

What was measured:
Experiment in all cases: NCI anticancer screen, dose series, 48 h
[1] = test system: CAKI-1
[2] = test system: UACC-62
[3] = test system: SF-539
[4] = test system: RXF 393
[5] = test system: UACC-257
[6] = test system: HL-60
[7] = test system: RPMI-8226
[8] = test system: OVCAR-3
[9] = test system: LOX IMVI
[10] = test system: UO-31
[11] = test system: U-251
[12] = test system: K562
[13] = test system: M14
[14] = test system: SK-MEL-28
[15] = test system: KM12
[16] = test system: NCI-H460
[17] = test system: SK-MEL-2

| SMILES | GI50 [1] | GI50 [2] | GI50 [3] | GI50 [4] | GI50 [5] | GI50 [6] | GI50 [7] | GI50 [8] | GI50 [9] | GI50 [10] | GI50 [11] | GI50 [12] | GI50 [13] | GI50 [14] | GI50 [15] | GI50 [16] | GI50 [17] |
| --- | --- | --- | --- | --- | --- | --- | --- | --- | --- | --- | --- | --- | --- | --- | --- | --- | --- |
| COc1cc2c3c(c1OC)/C(=N/OS(=O)(=O)c1ccc(C)cc1)CC3N(S(=O)(=O)c1ccc(C)cc1)CC2 (stereo not drawn) | > 100 µM (inactive) | > 100 µM (inactive) | > 100 µM (inactive) | 53.5 µM (inactive) | > 100 µM (inactive) | > 100 µM (inactive) | > 100 µM (inactive) | > 100 µM (inactive) | > 100 µM (inactive) | > 100 µM (inactive) | > 100 µM (inactive) | > 100 µM (inactive) | > 100 µM (inactive) | > 100 µM (inactive) | > 100 µM (inactive) | > 100 µM (inactive) |  |
| NC(=O)/C(=N\NC(=O)c1cc2ccccc2cc1O)C1C(=O)N(c2ccccc2)N=C1N (stereo not drawn) |  | 15.2 µM (inactive) |  | 29.3 µM (inactive) | 23.4 µM (inactive) | 6 µM (inactive) | 13.8 µM (inactive) | 28 µM (inactive) | > 100 µM (inactive) | 7.73 µM (inactive) | 30.3 µM (inactive) |  | 31.5 µM (inactive) | 73.6 µM (inactive) | 35.6 µM (inactive) | > 100 µM (inactive) | 21.7 µM (inactive) |
| Cc1cc2c(=O)cc(-c3ccc(Cl)cc3)oc2c(C(=O)O)c1C | > 100 µM (inactive) | > 100 µM (inactive) | > 100 µM (inactive) | > 100 µM (inactive) | > 100 µM (inactive) |  | > 100 µM (inactive) | > 100 µM (inactive) | > 100 µM (inactive) | > 100 µM (inactive) | > 100 µM (inactive) | > 100 µM (inactive) | > 100 µM (inactive) | > 100 µM (inactive) | > 100 µM (inactive) | > 100 µM (inactive) | > 100 µM (inactive) |
| CCOC(=O)Cc1ccc2c(c1O)C(=O)c1c(ccc(CC(=O)OCC)c1O)C2=O |  | > 100 µM (inactive) | > 100 µM (inactive) | 33 µM (inactive) | > 100 µM (inactive) | > 100 µM (inactive) | > 100 µM (inactive) | 47.8 µM (inactive) | 27.9 µM (inactive) | > 100 µM (inactive) | 83.8 µM (inactive) | > 100 µM (inactive) | > 100 µM (inactive) | 96.2 µM (inactive) | > 100 µM (inactive) |  | > 100 µM (inactive) |
| S=P1(c2ccccc2)Nc2ccc(Cl)cc2N1 (stereo not drawn) | 32.6 µM (inactive) | 8.09 µM (inactive) | > 100 µM (inactive) |  | > 100 µM (inactive) | 7.48 µM (inactive) | 4.68 µM (inactive) | > 100 µM (inactive) | > 100 µM (inactive) | 56.4 µM (inactive) | > 100 µM (inactive) | 49.3 µM (inactive) | 18.5 µM (inactive) | > 100 µM (inactive) | 88.9 µM (inactive) | > 100 µM (inactive) | > 100 µM (inactive) |
| O=C(O)C1=CCCc2ccc3ccccc3c21 |  | > 100 µM (inactive) | > 100 µM (inactive) | > 100 µM (inactive) | > 100 µM (inactive) |  | > 100 µM (inactive) | > 100 µM (inactive) | > 100 µM (inactive) | > 100 µM (inactive) | > 100 µM (inactive) | > 100 µM (inactive) | > 100 µM (inactive) | > 100 µM (inactive) | > 100 µM (inactive) | > 100 µM (inactive) | > 100 µM (inactive) |
| O=C(Cl)c1cc([N+](=O)[O-])cc([N+](=O)[O-])c1 | > 100 µM (inactive) | > 100 µM (inactive) | > 100 µM (inactive) |  | > 100 µM (inactive) | > 100 µM (inactive) | > 100 µM (inactive) |  | > 100 µM (inactive) | > 100 µM (inactive) | > 100 µM (inactive) | > 100 µM (inactive) | > 100 µM (inactive) | > 100 µM (inactive) | > 100 µM (inactive) | > 100 µM (inactive) | > 100 µM (inactive) |
| O=C(Nc1cc([N+](=O)[O-])cc([N+](=O)[O-])c1)OC1C2CCC1C1OC1C2 (stereo not drawn) |  | > 50 µM (inactive) | > 50 µM (inactive) | > 50 µM (inactive) | 32.4 µM (inactive) | 32.1 µM (inactive) | 22.6 µM (inactive) | 29.6 µM (inactive) |  | 19.9 µM (inactive) | > 50 µM (inactive) | > 50 µM (inactive) | > 50 µM (inactive) | > 50 µM (inactive) | 29.1 µM (inactive) | > 50 µM (inactive) | > 50 µM (inactive) |
| CC(=O)[O-].[O-]c1c(Cl)cc(Cl)cc1/C=N/Nc1ccccn1.[Zn+2] |  | 0.435 µM (active) | 1.26 µM (inactive) | 0.923 µM (active) | 0.418 µM (active) | 0.234 µM (active) | 0.325 µM (active) | 0.268 µM (active) | 0.798 µM (active) | 0.31 µM (active) | 3.12 µM (inactive) | 0.372 µM (active) | 0.387 µM (active) | 1.57 µM (inactive) | 6.3 µM (inactive) | 1.38 µM (inactive) | 0.0601 µM (active) |
